From patent US20240173432A1, “Compositions and Methods for Treatment of Myotonic Dystrophy Type 1 with CRISPR/SluCas9” (Vertex Pharmaceuticals Incorporated, priority 2021, published 2024)

Columns and labels:
[1] = tested on: CTG repeat in the 3′ UTR of human DMPK gene; experiment: Dual-cut screening: CTG repeat excision efficiency by loss-of-signal ddPCR; format: cell-based; conditions: sgRNA pair, primary DM1 patient myoblasts; for Excision efficiency (by ddPCR): 3 μM DNA-PKi Compound 6 for 48 hours; for Excision efficiency by ddPCR (Vehicle): vehicle (DMSO)
Method: (§1) RNPs were assembled with recombinant SluCas9 protein and chemically modified sgRNAs at a ratio of 1:3 (protein:sgRNA). For SINGLE-cut screening, RNP complexes were assembled with 30 pmol of SluCas9 and 90 pmol of sgRNA in P5 Primary Cell Nucleofector Solution (Lonza). After incubation at room temperature for 20 minutes, 10 μL of RNP complex were mixed with two hundred thousand of primary myoblasts resuspended in 10 μL of P5 Nucleofector Solution. For DOUBLE-cut screening, RNP complexes were first assembled for individual sgRNAs with 20 pmol of SluCas9 protein and 60 pmol of sgRNAs in 5 μL of P5 Nucleofector Solution. After incubation at room temperature for 20 minutes, the two RNP complexes (one for upstream sgRNA and one for downstream sgRNA) were mixed at 1:1 ratio and then further mixed with two hundred thousand of primary myoblasts resuspended in 10 μL of P5 Nucleofector Solution.
(§2) The Nucleofector 96-well Shuttle System (Lonza) was used to deliver the SluCa9/sgRNA RNPs into primary DM1 patient myoblasts using the nucleofection program CM138. Following nucleofection, myoblasts from each well of nucleofection shuttle were split into six wells of the 96-well cell culture plate (Greiner, 655090) coated with matrigel. The first three wells were treated with DMSO for 48 hrs before changing to fresh myoblast growth medium, and the other three wells were treated with 3 μM of DNA-PKi Compound 6 for 48 hrs before changing to fresh myoblast growth medium. 72 hrs post nucleofection, two wells of DMSO-treated myoblasts and two wells of DNA-PKi-treated myoblasts from each nucleofection were harvested for genomic DNA extraction using the Kingfisher Flex purification system (Thermal Fisher), whereas one well of DMSO-treated myoblasts and one well of DNA-PKi-treated myoblasts were stained for RNA foci by FISH staining.
The primers and probes of ddPCR are designed using the online primer design software Primer3Plus (http://www.bioinformatics.nl/cgi-bin/primer3plus/primer3plus.cgi). In some embodiments, two target primers/probe sets were used to detect CTG repeat excision, and a reference primers/probe set were used to amplify a region located in Exon 1 of human DMPK gene and to serve as a reference control for the target sets. The 24 μL of ddPCR reaction consists of 12 μL of Supermix for Probes (no dUTP) (Bio-Rad Laboratories), 1 μL of Reference primers mix (21.6 μM), 1 μL of Reference probe (6 μM), 1 μL of Target primers mix (21.6 μM), 1 μL of Target probe (6 μM), and 8 μL of sample genomic DNA. Droplets were generated using probe oil with the QX200 Droplet Generator (Bio-Rad Laboratories). Droplets were transferred to a 96-well PCR plate, sealed and cycled in a C1000 deep well Thermocycler (Bio-Rad Laboratories) under the following cycling protocol: 1 cycle at 95° C. for 10 min; 40 cycles of 94° C. for 30 see, and 58° C. for 1 min; 1 cycle at 98° C. for 10 min (for enzyme inactivation). The cycled plate was then transferred and read in the FAM and HEX channels using the Bio-Rad QX200 Droplet Reader (Bio-Rad Laboratories). ddPCR analysis is performed with the Bio-Rad QuantaSoft Pro Software.
(§3) To assess the efficiency of SluCas9 sgRNA pairs for inducing CTG repeat excision, Dual-cut screening was performed in which individual SluCas9 sgRNAs and recombinant SluCas9 protein were assembled into ribonucleoprotein (RNP) and delivered into primary DM1 patient myoblasts. Nucleofected myoblasts were treated with either DMSO (vehicle) or 3 μM of DNA-dependent Protein Kinase Inhibitor (DNA-PKi) Compound 6 for 48 hours. 72 hours post-nucleofection, myoblasts were subjected to either genomic DNA isolation or RNA foci staining by fluorescence in situ hybridization (FISH).
CRISPR repeat excision efficiency was assessed for each of the 88 pairs (FIG. 8A-B and Table 5). CTG repeat excision efficiency percentages are shown for vehicle (DMSO; white bars) and with DNA-PKi (black bars) (FIG. 8B and Table 5).

[2] = tested on: CUG foci in primary DM1 patient myoblasts; experiment: Dual-cut screening: FISH staining of CUG RNA foci; format: cell-based, human; conditions: sgRNA pair, primary DM1 patient myoblasts; for % of CUG foci free nuclei (DNA-PKi): 3 μM DNA-PKi Compound 6 for 48 hours; for % of CUG foci free nuclei (Vehicle): vehicle (DMSO)
Method: as §1, §2
Primary myoblasts were fixed for 15 min with 4% paraformaldehyde (PFA) and washed five times with 1×PBS for 10 min each at room temperature. Before staining, cells were permeabilized with 0.5% triton X-100 in 1×PBS for 5 min at room temperature, and then washed with 30% formamide and 2× saline-sodium citrate (SSC) mixture for 10 min at room temperature. Cells were then stained with 1 ng/μL of Cy3-PNA(CAG)5 probe (PNA Bio, F5001) diluted in 30% formamide, 2×SSC, 2 μg/mL BSA, 66 μg/mL yeast tRNA, and 2 mM vanadyl complex for 15 min at 80° C. Following probe staining, cells were then washed in 30% formamide and 2×SSC mixture for 30 min at 42° C., then washed in 30% formamide and 2×SSC mixture for 30 min at 37° C., and then washed in 1×SSC solution for 10 min at room temperature, and finally washed in 1×PBS for 10 min at room temperature. Cells were next stained with anti-MBNL1 antibody (Santa Cruz, 3A4) diluted in 1% bovine serum albumin (BSA) for overnight at 4° C., and washed twice with 1×PBS for 10 min each at room temperature. Cells were then incubated with the secondary antibody goat anti-rabbit Alexa 647 (Thermo Fisher, A32728) diluted in 1% BSA for 1 hr at room temperature, and washed twice with 1×PBS for 10 min each at room temperature. Next, cells were stained with Hoechst solution (Thermo Fisher, H3569) at 0.1 mg/ml for 5 min, and washed once with 1×PBS for 5 min. PBS was aspirated and fresh 100 μl of fresh PBS is added to each well. High-throughput acquisition of images was completed with the ImageXpress Micro Confocal High-Content Imaging System (Molecular Devices). RNA foci quantifications were accomplished with a customized analysis module of the MetaXpress program (Molecular Devices).
as §3, with “72 hours post-nucleofection, myoblasts were subjected to either genomic DNA isolation or RNA foci staining by fluorescence in situ hybridization (FISH).” left out

[3] = tested on: CUG foci in primary DM1 patient myoblasts; experiment: Single-cut screening: FISH staining of CUG RNA foci; format: cell-based, human; conditions: single sgRNA, primary DM1 patient myoblasts; for % of CUG foci free nuclei (DNA-PKi): DNA-PKi treated
Outline: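 CD56-purified primary DM1 patient myoblasts nucleofected with SluCas9:sgRNA RNP (30:90 pmol, single-cut), then DMSO or 3 μM DNA-PK inhibitor for 48 h. At 72 h post-nucleofection, cells fixed and stained for CUG foci with Cy3-PNA(CAG)5 probe (1 ng/μL, 80 °C), co-stained for MBNL1 and Hoechst, imaged by high-content confocal microscopy.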

[4] = tested on: 3′ UTR of the human DMPK gene; experiment: Single-cut screening: indel editing efficiency by Sanger sequencing and ICE analysis in primary DM1 patient myoblasts; format: cell-based; conditions: single SluCas9 sgRNA RNP in primary DM1 patient myoblasts; Sanger sequencing and ICE analysis; vehicle-treated samples
Outline: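 Indels were estimated by ICE from Sanger chromatograms of PCR amplicons covering the DMPK 3′ UTR wild-type allele, using only vehicle-treated samples; sgRNAs with R2<0.9 are flagged. Samples came from primary DM1 patient myoblasts (2 × 10^5) harvested 72 h after nucleofection with 30 pmol SluCas9 and 90 pmol single sgRNA RNP.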

[5] = tested on: CAG foci in primary DM1 patient myoblasts; experiment: Single-cut screening: CAG foci staining; format: cell-based, human; conditions: single sgRNA; for % of CAG foci positive nuclei (DNA-PKi): DNA-PKi treated
Outline: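 Primary DM1 patient myoblasts were PFA-fixed and hybridized with […] (1 ng/μL, 15 min at 80° C) in 30% formamide/2×SSC, followed by anti-MBNL1 immunostaining and Hoechst counterstain. CAG RNA foci were quantified by high-content confocal imaging after single-cut SuCas9 sgRNA editing.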

Substance	Excision efficiency (by ddPCR) [1]	Excision efficiency by ddPCR (Vehicle) [1]	% of CUG foci free nuclei (DNA-PKi) [2] [%]	% of CUG foci free nuclei (Vehicle) [2] [%]	% of CUG foci free nuclei (DNA-PKi) [3] [%]	% of CUG foci free nuclei (Vehicle) [3] [%]	Indel efficiency [4] [%]	% of CAG foci positive nuclei (DNA-PKi) [5] [%]	% of CAG foci positive nuclei (Vehicle) [5] [%]
SluU06 + SluD06 (guide 1 TGTCTTCGACTCCGGGGCCCCG; guide 2 CCAGGCTGAGGCCCTGACGTGG; guide RNA; listed as DNA, chemistry not fully specified)	57.64	42.65	87.02	62.81	–	–	–	–	–
SluU06 + SluD14 (guide 1 TGTCTTCGACTCCGGGGCCCCG; guide 2 ATGGGCAAACTGCAGGCCTGGG; guide RNA; listed as DNA, chemistry not fully specified)	65.02	48.08	83.37	66.72	–	–	–	–	–
SluU06 + SluD18 (guide 1 TGTCTTCGACTCCGGGGCCCCG; guide 2 TGGAGGATGGAACACGGACGGC; guide RNA; listed as DNA, chemistry not fully specified)	64.53	45.61	87.79	69.25	–	–	–	–	–
SluU06 + SluD32 (guide 1 TGTCTTCGACTCCGGGGCCCCG; guide 2 CTTGTGCATGACGCCCTGCTCT; guide RNA; listed as DNA, chemistry not fully specified)	73.51	50.63	89.84	67.77	–	–	–	–	–
SluU06 + SluD34 (guide 1 TGTCTTCGACTCCGGGGCCCCG; guide 2 CGCGCCAGACGCTCCCCAGAGC; guide RNA; listed as DNA, chemistry not fully specified)	67.57	51.37	90.66	78.56	–	–	–	–	–
SluU06 + SluD48 (guide 1 TGTCTTCGACTCCGGGGCCCCG; guide 2 GAGAGCAGCGCAAGTGAGGAGG; guide RNA; listed as DNA, chemistry not fully specified)	63.33	45.89	89.46	66.88	–	–	–	–	–
SluU06 + SluD56 (guide 1 TGTCTTCGACTCCGGGGCCCCG; guide 2 CCAGCCGGCTCCGCCCGCTTCG; guide RNA; listed as DNA, chemistry not fully specified)	54.91	31.65	85.13	47.08	–	–	–	–	–
SluU06 + SluD68 (guide 1 TGTCTTCGACTCCGGGGCCCCG; guide 2 CCTGTAGCCTGTCAGCGAGTCG; guide RNA; listed as DNA, chemistry not fully specified)	62.99	47.38	89.4	64.01	–	–	–	–	–
SluU06 + SluD73 (guide 1 TGTCTTCGACTCCGGGGCCCCG; guide 2 CCAAAACGTGGATTGGGGTTGT; guide RNA; listed as DNA, chemistry not fully specified)	63.29	43.4	88.37	65.15	–	–	–	–	–
SluU06 + SluD83 (guide 1 TGTCTTCGACTCCGGGGCCCCG; guide 2 GTGGGGACAGACAATAAATACC; guide RNA; listed as DNA, chemistry not fully specified)	66.18	46.13	89.45	66.03	–	–	–	–	–
ggccgggtccgcggccggcgaa (GGCCGGGTCCGCGGCCGGCGAA; guide RNA; chemistry not fully specified) [SluU56]	–	–	–	–	42.84	16.76	27	1.83	0.94
gggccgggtccgcggccggcga (GGGCCGGGTCCGCGGCCGGCGA; guide RNA; chemistry not fully specified) [SluU55]	–	–	–	–	57.91	27.94	67	1.34	0.99
tccctccccggccGCTAGGGGG (guide RNA; as printed in the source, key not given here) [SluU43]	–	–	–	–	28.61	7.64	5	1.76	1.02
